# From patent publication US8202513B2, “Aryl potassium channel blockers and uses thereof” (Bionomics Limited, priority 2007, dated 2012)
# Biological target: T1, human Kv1.3 ion channel (Homo sapiens, UniProt P22001)
# T1 construct: Human Jurkat cells (which endogenously express hKv1.3) or Chinese Hamster Ovary (CHO) cells stably transfected with hKv1.3 were used; endogenous in cells; host or cells: Human Jurkat cells (endogenous) or CHO cells stably transfected with hKv1.3
# Assay: Inhibition of Kv1.3 currents, planar patch clamp
# Format: cell-based
# Conditions: Human Jurkat cells or CHO cells stably transfected with hKv1.3; averaged dose response data from 3 or more cells
# Description: Potency of compounds to inhibit the human Kv1.3 ion channel was determined as follows:
# EC50 values for inhibition of Kv1.3 currents were determined by the method according to Schmitz et al (2005) Molecular Pharmacology 68, 1254-1270 with the following differences: • 1. Human Jurkat cells (which endogenously express hKv1.3) or Chinese Hamster Ovary (CHO) cells stably transfected with hKv1.3 were used in place of transfected rat L929 cells. • 2. All electrophysiology was performed using planar patch clamp (Port-A-Patch, Nanion Technologies Gmbh, Munich) in contrast to conventional patch clamp. • 3. EC50 values shown were determined from averaged dose response data obtained from 3 or more cells.
# T1 sequence (P22001 whole entry): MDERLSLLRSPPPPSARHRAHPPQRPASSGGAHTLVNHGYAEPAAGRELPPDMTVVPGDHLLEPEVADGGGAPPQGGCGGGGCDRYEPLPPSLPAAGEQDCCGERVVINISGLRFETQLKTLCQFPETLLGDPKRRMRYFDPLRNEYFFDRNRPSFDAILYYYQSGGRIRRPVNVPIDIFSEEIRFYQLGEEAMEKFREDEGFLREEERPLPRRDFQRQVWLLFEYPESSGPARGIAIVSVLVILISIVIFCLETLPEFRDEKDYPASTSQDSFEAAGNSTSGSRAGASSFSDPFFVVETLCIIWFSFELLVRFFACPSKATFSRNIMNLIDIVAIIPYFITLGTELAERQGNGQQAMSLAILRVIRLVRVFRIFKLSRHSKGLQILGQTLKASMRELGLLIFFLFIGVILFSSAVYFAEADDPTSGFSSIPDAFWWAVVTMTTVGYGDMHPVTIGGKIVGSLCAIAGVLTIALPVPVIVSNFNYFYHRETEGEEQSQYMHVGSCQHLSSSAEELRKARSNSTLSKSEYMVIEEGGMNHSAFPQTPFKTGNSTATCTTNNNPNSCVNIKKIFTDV
row,Structure (SMILES),EC50 [µM]
1,"COc1c(Cl)c(C)c(C(C)=O)c(OCCN2CCOCC2)c1OCCCc1ccc(F)cc1 [Example 1f, 1-(3-Chloro-5-(3-(4-fluorophenyl)propoxy)-4-methoxy-2-methyl-6-(2-morpholinoethoxy)phenyl)ethanone]",0.05 to 0.15
2,"COc1c(Cl)c(C)c(C(C)=O)c(OCCNC2CCCC2)c1OCCCc1ccc(F)cc1 [Example 2, 1-(3-Chloro-6-(cyclopentylamino)ethoxy)-5-(3-(4-fluorophenyl)propoxy-4-methoxy-2-methylphenyl)ethanone]",< 0.05
3,"COc1c(C)c(C)c(C(C)=O)c(OCCN2CCOCC2)c1OCCCc1ccc(F)cc1 [Example 3c, 1-[3-[3-(4-Fluoro-phenyl)-propoxy]-4-methoxy-5,6-dimethyl-2-(2-morpholin-4-yl-ethoxy)-phenyl]-ethanone]",0.05 to 0.15
4,"COc1c(C)c(C)c(C(C)=O)c(OCCc2ccccn2)c1OCCC(C)c1ccc(F)cc1 (stereo not drawn) [Example 4f, 1-[3-[3-(4-Fluoro-phenyl)-butoxy]-4-methoxy-5,6-dimethyl-2-(2-pyridin-2-yl-ethoxy)-phenyl]-ethanone]",< 0.05
5,"COc1c(C)c(C)c(C(C)=O)c(OCCN2CCOCC2)c1OCCC(C)c1ccc(F)cc1 (stereo not drawn) [Example 5, 1-[3-[3-(4-Fluoro-phenyl)-butoxy]-4-methoxy-5,6-dimethyl-2-(2-morpholin-4-yl-ethoxy)-phenyl]-ethanone]",< 0.05
6,"COc1c(C)c(C)c(C(C)=O)c(OCCNC2CCCC2)c1OCCC(C)c1ccc(F)cc1 (stereo not drawn) [Example 6, 1-{2-(2-Cyclopentylamino-ethoxy)-3-[3-(4-fluoro-phenyl)-butoxy]-4-methoxy-5,6-dimethyl-phenyl}-ethanone]",< 0.05
7,"COc1c(Cl)c(C)c(C(C)=O)c(OCCNC2CCCC2)c1OCCC(C)c1ccc(F)cc1 (stereo not drawn) [Example 9, 1-[3-Chloro-6-(2-cyclopentylamino-ethoxy)-5-[3-(4-fluoro-phenyl)-butoxy]-4-methoxy-2-methyl-phenyl]-ethanone]",0.05 to 0.15
8,"COc1c(Cl)c(C)c(C(C)=O)c(OCCN2CCCCC2)c1OCCC(C)c1ccc(F)cc1 (stereo not drawn) [Example 10, 1-[3-Chloro-5-[3-(4-fluoro-phenyl)-butoxy]-4-methoxy-2-methyl-6-(2-piperidin-1-yl-ethoxy)-phenyl]-ethanone]",< 0.05
9,"COc1c(Cl)c(C)c(C(C)=O)c(OCCN2CCC(F)CC2)c1OCCC(C)c1ccc(F)cc1 (stereo not drawn) [Example 11, 1-{3-Chloro-5-[3-(4-fluoro-phenyl)-butoxy]-6-[2-(4-fluoro-piperidin-1-yl)-ethoxy]-4-methoxy-2-methyl-phenyl}-ethanone]",0.05 to 0.15
10,"COc1c(Cl)c(C)c(C(C)=O)c(OCCN2CC[C@@H](F)C2)c1OCCC(C)c1ccc(F)cc1 (stereo partly drawn) [Example 12, 1-{3-Chloro-5-[3-(4-fluoro-phenyl)-butoxy]-6-[2-(R-3-fluoro-pyrrolidin-1-yl)-ethoxy]-4-methoxy-2-methyl-phenyl}-ethanone]",< 0.05
11,"COc1c(Cl)c(C)c(C(C)=O)c(OCc2ccccn2)c1OCCC(C)c1ccc(F)cc1 (stereo not drawn) [Example 13, 1-[3-Chloro-5-[3-(4-fluoro-phenyl)-butoxy]-4-methoxy-2-methyl-6-(pyridin-2-ylmethoxy)-phenyl]-ethanone]",0.15 to 0.3
12,"COc1c(Cl)c(C)c(C(C)=O)c(OCCN2CCC(O)CC2)c1OCCC(C)c1ccc(F)cc1 (stereo not drawn) [Example 14, 1-{3-Chloro-5-[3-(4-fluoro-phenyl)-butoxy]-6-[2-(4-hydroxy-piperidin-1-yl)-ethoxy]-4-methoxy-2-methyl-phenyl}-ethanone]",0.05 to 0.15
13,"COc1c(Cl)c(C)c(C(C)=O)c(OCCN2CCC(=O)CC2)c1OCCC(C)c1ccc(F)cc1 (stereo not drawn) [Example 15, 1-{3-Chloro-5-[3-(4-fluoro-phenyl)-butoxy]-6-[2-(4-oxo-piperidin-1-yl)-ethoxy]-4-methoxy-2-methyl-phenyl}-ethanone]",< 0.05
14,"COc1c(Cl)c(C)c(C(C)=O)c(OCCN2CCC(F)(F)CC2)c1OCCC(C)c1ccc(F)cc1 (stereo not drawn) [Example 16, 1-{3-Chloro-6-[2-(4,4-difluoro-piperidin-1-yl)-ethoxy]-5-[3-(4-fluoro-phenyl)-butoxy]-4-methoxy-2-methyl-phenyl}-ethanone]",0.05 to 0.15
15,"COc1c(Cl)c(C)c(C(C)=O)c(OCCN2CCCC(F)(F)C2)c1OCCC(C)c1ccc(F)cc1 (stereo not drawn) [Example 17, 1-{3-Chloro-6-[2-(3,3-difluoro-piperidin-1-yl)-ethoxy]-5-[3-(4-fluoro-phenyl)-butoxy]-4-methoxy-2-methyl-phenyl}-ethanone]",< 0.05
16,"COc1c(Cl)c(C)c(C(C)=O)c(OCCOc2cnccn2)c1OCCC(C)c1ccc(F)cc1 (stereo not drawn) [Example 18b, 1-{3-Chloro-5-[3-(4-fluoro-phenyl)-butoxy]-4-methoxy-2-methyl-6-[2-(pyrazin-2-yloxy)-ethoxy]-phenyl}-ethanone]",< 0.05
17,"COc1c(Cl)c(C)c(C(C)=O)c(OCCn2cncn2)c1OCCC(C)c1ccc(F)cc1 (stereo not drawn) [Example 19, 1-[3-Chloro-5-[3-(4-fluorophenyl)-butoxy]-4-methoxy-2-methyl-6-(2-[1,2,4]-triazol-1-yl-ethoxy)-phenyl]-ethanone]",0.05 to 0.15

row,Structure (SMILES),EC50 [µM]
1,"COc1c(Cl)c(C)c(C(C)=O)c(OCCN2CC(F)(F)C2)c1OCCC(C)c1ccc(F)cc1 (stereo not drawn) [Example 20, 1-{3-Chloro-6-[2-(3,3-difluoro-azetidin-1-yl)-ethoxy]-5-[3-(4-fluoro-phenyl)-butoxy]-4-methoxy-2-methyl-phenyl}-ethanone]",0.05 to 0.15
2,"COc1c(Cl)c(C)c(C(C)=O)c(OCCCN2CCOCC2)c1OCCC(C)c1ccc(F)cc1 (stereo not drawn) [Example 22b, 1-[3-Chloro-5-[3-(4-fluoro-phenyl)-butoxy]-4-methoxy-2-methyl-6-(3-morpholin-4-yl-propoxy)-phenyl]-ethanone]",< 0.05
3,"COc1c(Cl)c(C)c(C(C)=O)c(OCCCN2CCS(=O)(=O)CC2)c1OCCC(C)c1ccc(F)cc1 (stereo not drawn) [Example 23, 1-{3-Chloro-6-[3-(1,1-dioxo-thiomorpholin-4-yl)-propoxy]-5-[3-(4-fluoro-phenyl)-butoxy]-4-methoxy-2-methyl-phenyl}-ethanone]",< 0.05
4,"COc1c(Cl)c(C)c(C(C)=O)c(OCCCN2CC[S+]([O-])CC2)c1OCCC(C)c1ccc(F)cc1 (stereo not drawn) [Example 24, 1-{3-Chloro-5-[3-(4-fluoro-phenyl)-butoxy]-4-methoxy-2-methyl-6-[3-(1-oxo-thiomorpholin-4-yl)-propoxy]-phenyl}-ethanone]",0.05 to 0.15
5,"COc1c(Cl)c(C)c(C(C)=O)c(OCCN2CCOCC2)c1CCCCc1ccccc1 [Example 26b, 1-(3-Chloro-4-methoxy-2-methyl-6-(2-morpholinoethoxy)-5-5(4-phenylbutyl)phenyl)ethanone]",< 0.05
6,"COc1c(Cl)c(C)c(C(C)=O)c(OCCc2ccccn2)c1CCCCc1ccccc1 [Example 27, 1-(3-Chloro-4-methoxy-2-methyl-5-(4-phenylbutyl)-6-(2-(pyridine-2-yl)ethoxy)phenyl)ethanone]",< 0.05
7,"COc1c(Cl)c(C)c(C(C)=O)c(OCCN2CCOCC2)c1CCCC(C)c1ccc(F)cc1 (stereo not drawn) [Example 31b, 1-(3-Chloro-5-(4-(4-fluorophenyl)pentyl)-4-methoxy-2-methyl-6-(2-morpholinoethoxy)phenyl)ethanone]",0.05 to 0.15
8,"COc1c(Cl)c(C)c(C(C)=O)c(OCCc2ccccn2)c1CCCC(C)c1ccc(F)cc1 (stereo not drawn) [Example 32, 1-[3-Chloro-5-[4-(4-fluoro-phenyl)-pentyl]-4-methoxy-2-methyl-6-(2-pyridin-2-yl-ethoxy)-phenyl]-ethanone]",< 0.05
9,"COc1cc(C)c(C(C)=O)c(O)c1OCCCc1ccccc1 [Example 33a, 1-(3-(3-(phenyl)propoxy)-2-hydroxy-4-methoxy-6-methylphenyl)ethanone, reference compound]",> 0.3
10,"COc1cc(C)c(C(C)=O)c(OCCN2CCOCC2)c1OCCCc1ccccc1 [Example 33b, 1-[4-Methoxy-6-methyl-2-(2-morpholin-4-yl-ethoxy)-3-(3-phenyl-propoxy)-phenyl]-ethanone]",0.15 to 0.3
11,"COc1c(Cl)c(C)c(C(C)=O)c(OCCNC2CCCC2)c1OCCCc1ccccc1 [Example 34c, 1-[3-Chloro-6-(2-cyclopentylamino-ethoxy)-4-methoxy-2-methyl-5-(3-phenyl-propoxy)-phenyl]-ethanone]",0.05 to 0.15
12,"COc1c(Cl)c(C)c(C(C)=O)c(OCCN2CC(F)(F)C2)c1OCCCc1ccccc1 [Example 35, 1-[3-Chloro-6-[2-(3,3-difluoro-azetidin-1-yl)-ethoxy]-4-methoxy-2-methyl-5-(3-phenyl-propoxy)-phenyl]-ethanone]",> 0.3
13,"COc1c(Cl)c(C)c(C(C)=O)c(OCCN2CCSCC2)c1OCCCc1ccccc1 [Example 36, 1-[3-Chloro-4-methoxy-2-methyl-5-(3-phenyl-propoxy)-6-(2-thiomorpholin-4-yl-ethoxy)-phenyl]-ethanone]",0.05 to 0.15
14,"COc1c(Cl)c(C)c(C(C)=O)c(OCCN2CCC(F)(F)C2)c1OCCCc1ccccc1 [Example 37, 1-[3-Chloro-6-[2-(3,3-difluoro-pyrrolidin-1-yl)-ethoxy]-4-methoxy-2-methyl-5-(3-phenyl-propoxy)-phenyl]-ethanone]",0.15 to 0.3
15,"COc1c(Cl)c(C)c(C(C)=O)c(OCCN2CC(O)C2)c1OCCCc1ccccc1 [Example 38, 1-[3-Chloro-6-[2-(3-hydroxy-azetidin-1-yl)-ethoxy]-4-methoxy-2-methyl-5-(3-phenyl-propoxy)-phenyl]-ethanone]",> 0.3
16,"COc1c(Cl)c(C)c(C(C)=O)c(OCCN2CC(=O)C2)c1OCCCc1ccccc1 [Example 39, 1-[3-Chloro-6-[2-(3-oxo-azetidin-1-yl)-ethoxy]-4-methoxy-2-methyl-5-(3-phenyl-propoxy)-phenyl]-ethanone]",> 0.3
